The numbers were not newly measured in patent US20210077417A1, “Methods and Compositions Particularly for Treatment of Attention Deficit Disorder” (Purdue Pharma L.P., priority 2018, published 2021), which cites them from elsewhere.

One data set deals with patients with ADHD. Particulars: reported.

Structures can show the parent of a compound that is named as a salt. Where two headings read alike, the source gives them in different places.

Take `COC(=O)C(c1ccccc1)C1CCCCN1` (racemic) [Methylphenidate, dl-threo-methyl-2-phenyl-2-(2-piperidyl)acetate]: the Stability result (acidic solutions) is “relatively stable” and the Stability entry (basic solutions) is recorded as “degraded extensively”. Besides, where the note is “as the pH increases to 8.9”, the “Degradation amount (hydrolysis of the methyl ester)” value was “up to 100%”.

Take `COC(=O)C(c1ccccc1)C1CCCCN1` (stereo not shown) [Methylphenidate hydrochloride]: the Solubility result reads like this: (in acetone) “slightly soluble”; (in alcohol) “soluble”; (in chloroform) “slightly soluble”; (in methanol) “freely soluble”; (in water) “freely soluble”.

For the molecule lisdexamfetamine dimesylate, in the data set on patients with ADHD, the Duration of action entry is “up to 14 hours” and the Onset of action result was “does not have a rapid onset of action”.
